Reference: patent US5234907A, “Synthetic vasoactive intestinal peptide analogs” (Hoffmann-La Roche Inc., priority 1991, dated 1993)
*1 amine or outer side, *2 acyl side, *3 side chain or, on linkers, in order; H or OH if unused. [ ]: non-standard residue; d: D form. The star is where a group is joined. Cys(Acm) = CC(=O)NCSC[C@H](N[*:1])C(=O)[*:2]; Phe(4-F) = N[C@@H](Cc1ccc(F)cc1)C(=O)O; 2Nal = N[C@@H](Cc1ccc2ccccc2c1)C(=O)O; Nle = CCCC[C@H](N)C(=O)O; Orn = NCCC[C@H](N)C(=O)O; Acm = CC(=O)NC*

Columns and labels:
[1] = tested on: guinea pig tracheal smooth muscle; assay: Tracheal relaxant activity of VIP analogs on isolated guinea pig tracheal rings; type: cell-based; conditions: cumulative concentration response; responses as % of maximum response to VIP (10^-6 M=100%); at least three tissues pooled; linear regression
Procedure: The relaxant activity of the VIP analogs was studied in a model utilizing guinea pig trachea. [Wasserman, M. A. et al., in Vasoactive Intestinal Peptide, S. I. Said, ed., Raven Press, N.Y. 1982, pp 177-184]; All tissues were taken from male albino guinea pig weighing 400-600 g, anesthesized with urethane (2 g/kg, i.p.). After exanguination, the trachea were removed and divided into four ring segments (3 mm length). Each ring was suspended by 30 gauge stainless steel wires in a 10 mL jacketed tissue bath and attached via 4-0 silk thread to a Grass force displacement transducer (model FT03C, Grass Instruments Co., Quincy, Ma), for isometric recording of tension. The smooth muscle was bathed in modified Krebs solution of the following composition: NaCl, 120 mM; KCl, 4.7 mM; CaCl2, 2.5 mM; MgSO.4 7H2 O, 1.2 mM; NaHCO3, 25 mM; K2 HPO4 monobasic, 1.2 mM; and dextrose, 10 mM. Tissue baths were maintained at 37° C. and constantly bubbled with 95% O2 and 5% CO2. Responses were recorded on an 8 channel and a 4 channel Hewlett-Packard (model 7702B and 7754A, respectively) recorder (Hewlett-Packard, Paramus, N.J.). […] Frequent readjustments of tension were required during the 60 minute stabilization period which followed. Tissues were rinsed at 15 minute intervals.
Cumulative concentration response curves were obtained for each tissue by successive […] increases in the bath concentration of VIP or VIP analogs according to the method of VanRossum [Arch. Int. Pharmacodyn., 143, 299-330 (1963)]. Only one cumulative dose response curve was obtained on a single tissue. To minimize variability between tissues, relaxant responses were expressed as a percentage of the maximum response obtained to VIP (10^-6 M=100%) added at the end of each concentration response experiment. Responses obtained from at least three tissues were pooled and EC50 values were determined by linear regression.

[2] = tested on: guinea pigs; assay: In vivo bronchodilator activity by tracheal instillation against histamine-induced bronchoconstriction; set-up: species or system guinea pig; conditions: 100 μl, anesthetized male Hartley guinea pigs, histamine challenge 50 μg/kg i.v., inhibition of tracheal pressure increase
Procedure: The in vivo bronchodilator activity of VIP analogs in guinea pigs was assessed by the tracheal instillation route of administration. This technique utilized male guinea pigs (Hartley strain, Charles River) weighing 400-600 g. Animals were anesthetized with urethane (2 g/kg) intraperitoneally and a polyethylene cannula was inserted into the jugular vein for intravenous drug administration.
The animals were tracheotomized and dosing solutions of distilled water or test compound dissolved in distilled water were administered into the trachea, approximately three-quarter the distance to the carina with a pipette. The concentration of the dosing solution was adjusted to deliver a constant volume of 100 μl. The animals were placed supine for one minute to aid drug delivery to the lung. One minute later, spontaneous breathing was arrested with succinylcholine chloride (1.2 mg/kg) administered intravenously, and the animals were ventilized with a Harvard Model 680 small animal respirator set at 40 breaths/min and 4.0 cm^3 stoke volume. The animals were challenged with a maximal constrictory dose of histamine (50 μg/kg, i.v.) and tracheal pressure (cm of water) was recorded from a Statham pressure transducer (P 32 AA).
The change in tracheal pressure was averaged for at least 3 control and 3 drug-treated animals and percent inhibition was calculated. The relative potency of compounds administered by the instillation route was determined by administering various doses of test compound and calculating the median inhibitory dose (ID50 value). The ID50 was determined from log dose-reasons curves generated by at least 3 doses that caused inhibitory effects between 10% and 90%. The correlation coefficient for the regression line of each antagonist was always greater than 0.95.
For determination of the time course of inhibition for various compounds, the time between administration of compound and challenge with histamine was varied. The time course of activity was calculated as the time when inhibition decreased to 40%.

Ac--[2-Nal^10, Lys^12, Nle^17, Ala^19, Val^26, Thr^28, Gly^29,30, Met^31 ]--VIP (Ac-HSDAVFTDN[2Nal]TKLRKQ[Nle]AAKKYLNSVLTGGM-NH2; SMILES CCCC[C@H](NC(=O)[C@H](CCC(N)=O)NC(=O)[C@H](CCCCN)NC(=O)[C@H](CCCNC(=N)N)NC(=O)[C@H](CC(C)C)NC(=O)[C@H](CCCCN)NC(=O)[C@@H](NC(=O)[C@H](Cc1ccc2ccccc2c1)NC(=O)[C@H](CC(N)=O)NC(=O)[C@H](CC(=O)O)NC(=O)[C@@H](NC(=O)[C@H](Cc1ccccc1)NC(=O)[C@@H](NC(=O)[C@H](C)NC(=O)[C@H](CC(=O)O)NC(=O)[C@H](CO)NC(=O)[C@H](Cc1c[nH]cn1)NC(C)=O)C(C)C)[C@@H](C)O)[C@@H](C)O)C(=O)N[C@@H](C)C(=O)N[C@@H](C)C(=O)N[C@@H](CCCCN)C(=O)N[C@@H](CCCCN)C(=O)N[C@@H](Cc1ccc(O)cc1)C(=O)N[C@@H](CC(C)C)C(=O)N[C@@H](CC(N)=O)C(=O)N[C@@H](CO)C(=O)N[C@H](C(=O)N[C@@H](CC(C)C)C(=O)N[C@H](C(=O)NCC(=O)NCC(=O)N[C@@H](CCSC)C(N)=O)[C@@H](C)O)C(C)C) [Ac--(SEQ ID NO: 18)--NH2]
EC50 [1]: 0.24 nM | Bronchodilator activity in guinea pigs, ED50 [2]: 0.35 µg

Ac--[Ala^2, Glu^8, Lys^12, Nle^17, Ala^19, Val^26, Thr^28, Ala^29-31 ]--VIP (Ac-HADAVFTENYTKLRKQ[Nle]AAKKYLNSVLTAAA-NH2; SMILES CCCC[C@H](NC(=O)[C@H](CCC(N)=O)NC(=O)[C@H](CCCCN)NC(=O)[C@H](CCCNC(=N)N)NC(=O)[C@H](CC(C)C)NC(=O)[C@H](CCCCN)NC(=O)[C@@H](NC(=O)[C@H](Cc1ccc(O)cc1)NC(=O)[C@H](CC(N)=O)NC(=O)[C@H](CCC(=O)O)NC(=O)[C@@H](NC(=O)[C@H](Cc1ccccc1)NC(=O)[C@@H](NC(=O)[C@H](C)NC(=O)[C@H](CC(=O)O)NC(=O)[C@H](C)NC(=O)[C@H](Cc1c[nH]cn1)NC(C)=O)C(C)C)[C@@H](C)O)[C@@H](C)O)C(=O)N[C@@H](C)C(=O)N[C@@H](C)C(=O)N[C@@H](CCCCN)C(=O)N[C@@H](CCCCN)C(=O)N[C@@H](Cc1ccc(O)cc1)C(=O)N[C@@H](CC(C)C)C(=O)N[C@@H](CC(N)=O)C(=O)N[C@@H](CO)C(=O)N[C@H](C(=O)N[C@@H](CC(C)C)C(=O)N[C@H](C(=O)N[C@@H](C)C(=O)N[C@@H](C)C(=O)N[C@@H](C)C(N)=O)[C@@H](C)O)C(C)C) [Ac--(SEQ ID NO: 19)--NH2]
EC50 [1]: 0.23 nM | Bronchodilator activity in guinea pigs, ED50 [2]: 0.47 µg

Ac--[Ala^2, Lys^12, Nle^17, Ala^25, Leu^26, Lys^27,28, Gly^29,30, Thr^31 ]--VIP (Ac-HADAVFTDNYTKLRKQ[Nle]AVKKYLNALKKGGT-NH2; SMILES CCCC[C@H](NC(=O)[C@H](CCC(N)=O)NC(=O)[C@H](CCCCN)NC(=O)[C@H](CCCNC(=N)N)NC(=O)[C@H](CC(C)C)NC(=O)[C@H](CCCCN)NC(=O)[C@@H](NC(=O)[C@H](Cc1ccc(O)cc1)NC(=O)[C@H](CC(N)=O)NC(=O)[C@H](CC(=O)O)NC(=O)[C@@H](NC(=O)[C@H](Cc1ccccc1)NC(=O)[C@@H](NC(=O)[C@H](C)NC(=O)[C@H](CC(=O)O)NC(=O)[C@H](C)NC(=O)[C@H](Cc1c[nH]cn1)NC(C)=O)C(C)C)[C@@H](C)O)[C@@H](C)O)C(=O)N[C@@H](C)C(=O)N[C@H](C(=O)N[C@@H](CCCCN)C(=O)N[C@@H](CCCCN)C(=O)N[C@@H](Cc1ccc(O)cc1)C(=O)N[C@@H](CC(C)C)C(=O)N[C@@H](CC(N)=O)C(=O)N[C@@H](C)C(=O)N[C@@H](CC(C)C)C(=O)N[C@@H](CCCCN)C(=O)N[C@@H](CCCCN)C(=O)NCC(=O)NCC(=O)N[C@H](C(N)=O)[C@@H](C)O)C(C)C) [Ac--(SEQ ID NO: 20)--NH2]
EC50 [1]: 0.44 nM | Bronchodilator activity in guinea pigs, ED50 [2]: 0.05 µg

Ac--[Glu^8, Lys^12, Nle^17, Val^26, Thr^28, Gly^29,30, Met^31 ]--VIP (Ac-HSDAVFTENYTKLRKQ[Nle]AVKKYLNSVLTGGM-NH2; SMILES CCCC[C@H](NC(=O)[C@H](CCC(N)=O)NC(=O)[C@H](CCCCN)NC(=O)[C@H](CCCNC(=N)N)NC(=O)[C@H](CC(C)C)NC(=O)[C@H](CCCCN)NC(=O)[C@@H](NC(=O)[C@H](Cc1ccc(O)cc1)NC(=O)[C@H](CC(N)=O)NC(=O)[C@H](CCC(=O)O)NC(=O)[C@@H](NC(=O)[C@H](Cc1ccccc1)NC(=O)[C@@H](NC(=O)[C@H](C)NC(=O)[C@H](CC(=O)O)NC(=O)[C@H](CO)NC(=O)[C@H](Cc1c[nH]cn1)NC(C)=O)C(C)C)[C@@H](C)O)[C@@H](C)O)C(=O)N[C@@H](C)C(=O)N[C@H](C(=O)N[C@@H](CCCCN)C(=O)N[C@@H](CCCCN)C(=O)N[C@@H](Cc1ccc(O)cc1)C(=O)N[C@@H](CC(C)C)C(=O)N[C@@H](CC(N)=O)C(=O)N[C@@H](CO)C(=O)N[C@H](C(=O)N[C@@H](CC(C)C)C(=O)N[C@H](C(=O)NCC(=O)NCC(=O)N[C@@H](CCSC)C(N)=O)[C@@H](C)O)C(C)C)C(C)C) [Ac--(SEQ ID NO: 9)--NH2]
Bronchodilator activity in guinea pigs, ED50 [2]: 1.7 µg

Ac--[Leu^5, Orn^12, Ala^17,19, Thr^25, Val^26, Thr^28, Gly^29,30, Cys(Acm)^31 ]--VIP (Ac-HSDALFTDNYT[Orn]LRKQAAAKYLNSTVNTGGC(Acm)-NH2; SMILES CC(=O)NCSC[C@H](NC(=O)CNC(=O)CNC(=O)[C@@H](NC(=O)[C@H](CC(N)=O)NC(=O)[C@@H](NC(=O)[C@@H](NC(=O)[C@H](CO)NC(=O)[C@H](CC(N)=O)NC(=O)[C@H](CC(C)C)NC(=O)[C@H](Cc1ccc(O)cc1)NC(=O)[C@H](CCCCN)NC(=O)[C@H](C)NC(=O)[C@H](C)NC(=O)[C@H](C)NC(=O)[C@H](CCC(N)=O)NC(=O)[C@H](CCCCN)NC(=O)[C@H](CCCNC(=N)N)NC(=O)[C@H](CC(C)C)NC(=O)[C@H](CCCN)NC(=O)[C@@H](NC(=O)[C@H](Cc1ccc(O)cc1)NC(=O)[C@H](CC(N)=O)NC(=O)[C@H](CC(=O)O)NC(=O)[C@@H](NC(=O)[C@H](Cc1ccccc1)NC(=O)[C@H](CC(C)C)NC(=O)[C@H](C)NC(=O)[C@H](CC(=O)O)NC(=O)[C@H](CO)NC(=O)[C@H](Cc1c[nH]cn1)NC(C)=O)[C@@H](C)O)[C@@H](C)O)[C@@H](C)O)C(C)C)[C@@H](C)O)C(N)=O) [Ac--(SEQ ID NO: 8)--NH2]
Bronchodilator activity in guinea pigs, ED50 [2]: 0.28 µg

Ac--[p-F--Phe^6, Lys^12, Nle^17, Ala^19, Val^26, Thr^28, Gly^29,30, Cys(Acm)^31 ]--VIP (Ac-HSDAV[Phe(4-F)]TDNYTKLRKQ[Nle]AAKKYLNSVLTGG[Cys(Acm)]-NH2; SMILES CCCC[C@H](NC(=O)[C@H](CCC(N)=O)NC(=O)[C@H](CCCCN)NC(=O)[C@H](CCCNC(=N)N)NC(=O)[C@H](CC(C)C)NC(=O)[C@H](CCCCN)NC(=O)[C@@H](NC(=O)[C@H](Cc1ccc(O)cc1)NC(=O)[C@H](CC(N)=O)NC(=O)[C@H](CC(=O)O)NC(=O)[C@@H](NC(=O)[C@H](Cc1ccc(F)cc1)NC(=O)[C@@H](NC(=O)[C@H](C)NC(=O)[C@H](CC(=O)O)NC(=O)[C@H](CO)NC(=O)[C@H](Cc1c[nH]cn1)NC(C)=O)C(C)C)[C@@H](C)O)[C@@H](C)O)C(=O)N[C@@H](C)C(=O)N[C@@H](C)C(=O)N[C@@H](CCCCN)C(=O)N[C@@H](CCCCN)C(=O)N[C@@H](Cc1ccc(O)cc1)C(=O)N[C@@H](CC(C)C)C(=O)N[C@@H](CC(N)=O)C(=O)N[C@@H](CO)C(=O)N[C@H](C(=O)N[C@@H](CC(C)C)C(=O)N[C@H](C(=O)NCC(=O)NCC(=O)N[C@@H](CSCNC(C)=O)C(N)=O)[C@@H](C)O)C(C)C) [Ac--(SEQ ID NO: 76)--NH2]
Bronchodilator activity in guinea pigs, ED50 [2]: 017 µg
